We go through 2 compounds from EP3974434B1, “MACROLIDE DERIVATIVES, PREPARATION METHOD AND APPLICATION THEREOF” (Zhejiang Hisun Pharmaceutical Co., Ltd., priority 2019, dated 2020).

The test system of one experiment is BAF3 LMNA-TRKA^G667C. Briefly: Cell proliferation assay (CellTiter-Glo), BAF3 LMNA-TRKA G667C. The format is cell-based. The conditions noted are these: Mus musculus, 72 hours. The method, then: The following method was used to determine the effects of the compounds of the present invention on cell proliferation. BAF3 cells were purchased from National Infrastructure of Cell Line Resource (Beijing Headquarter). For TRKA, BAF3 cells were used to construct […] stable cell lines of BAF3 LMNA-TRKA^WT and BAF3 LMNA-TRKA^G667C.The above […] cell lines were used to determine the inhibition of the compounds on cell activities. The cells were cultured in an RPMI 1640 medium containing 10% fetal bovine serum, 100 U penicillin and 100 µg/mL streptomycin. The cells were cultured in a 5% CO2 incubator at 37°C. The activities of the cells were determined by CellTiter-Glo® Luminescent Cell Viability Assay kit (Promega, article number: G7573).
The experimental methods were operated according to the steps in the kit instruction, and were briefly described as follows: a test compound was first dissolved in DMSO to prepare a storage solution, and then diluted in gradient with the corresponding cell culture medium to prepare a test sample. A final concentration of the compound ranged from 1 µM to 0.15 nM. […] After the culture, 50 µL of CellTiter-Glo detection solution was added to each well, shaken for 5 minutes, and then stood for 10 minutes, and the luminescence values of each well were read on the microplate reader using a Luminance mode. […]
Background: Cellular ATP, detected with luciferase, serves as a proxy for viable cell number.

Another experiment has as its target T1, TRKC(G623R) (Homo sapiens, UniProt Q16288, G623R).
T1 construct: purchased SignalChem N18-12CH-10
Kind of experiment: HTRF KinEASE-TK kinase activity inhibition assay, TRKC(G623R). The experiment is classed as biochemical. The conditions noted are these: ATP 100 µM. The text has this:
(§1) The following method was used to determine the inhibition degrees of the compounds of the present invention on the activity of recombinant human NTRK family kinase in vitro. In this method, HTRF®KinEASE-TK tyrosine kinase kit (article number: 62TK0PEB) of Cisbio company was used, and the principle of the kit was based on time-resolved fluorescence resonance energy transfer (TF-FRET), and the inhibition of the compounds on the activity of the NTRK kinase was reflected by determining a phosphorylation degree of a biotinylated polypeptide substrate mediated by NTRK kinase. For detailed experimental operation, please refer to the kit instruction. Recombinant human wild-type NTRK proteins were purchased from Carna bioscience (the article numbers were TRKA #08-186, TRKB #08-187 and TRKC #08-197 respectively), and recombinant human mutant NTRK proteins were purchased from SignalChem (the article numbers were TRKA G595R #N16-12BG-10, TRKA G667C # N16-12CG-10, and TRKC G623R # N18-12CH-10 respectively).
The experimental methods were operated according to the steps in the kit instruction, and were briefly described as follows: a test compound was first dissolved in DMSO to prepare a storage solution, and then diluted in gradient with a buffer provided in the kit. A final concentration of the test compound in the reaction system ranged from 1,000 nM to 0.004 nM. An ATP Km value concentration of each NTRK protein was determined by using an ATP solution diluted in gradient (Sangon Biotech (Shanghai) Co., Ltd., A600311). According to the Km value obtained, the ATP concentrations in the reaction system were set as 100 µM for TRKA, 10 µM for TRKB, 50 µM for TRKC, 7 µM for TRKA(G595R), 1 µM for TRKA(G667C) and 100 µM for TRKC(G623R). The reaction was carried out in a 384-well microplate. Firstly, the compound and a certain amount of corresponding NTRK protein were added to the wells and incubated for 5 minutes to 10 minutes at room temperature. Then, the ATP solution and the biotinylated polypeptide substrate solution were added to the reaction solution and incubated with shaking at room temperature for 60 minutes. […] After incubation, fluorescence intensity values of each well at an excitation wavelength of 304 nm, and emission wavelengths of 620 nm and 665 nM were determined in a TF-FRET mode on a microplate reader. Compared with the fluorescence intensity ratio of a control group (0.1% DMSO), the percentage inhibition rates of the compound at each concentration were calculated, and the IC50 value of the compound was obtained by performing nonlinear regression analysis for logarithmic value of the compound concentration - inhibition rate by GraphPad Prism 5 software, which can be seen in Table 1. […]

The target of the next experiment is T2, TRKA(G595R) (Homo sapiens, UniProt P04629, G595R).
T2 construct: purchased SignalChem N16-12BG-10
Briefly: HTRF KinEASE-TK kinase activity inhibition assay, TRKA(G595R). The format is biochemical. The conditions noted are these: ATP 7 µM.
From the text: as §1
(§2) The experimental methods were operated according to the steps in the kit instruction, and were briefly described as follows: a test compound was first dissolved in DMSO to prepare a storage solution, and then diluted in gradient with a buffer provided in the kit. A final concentration of the test compound in the reaction system ranged from 1,000 nM to 0.004 nM. An ATP Km value concentration of each NTRK protein was determined by using an ATP solution diluted in gradient (Sangon Biotech (Shanghai) Co., Ltd., A600311). According to the Km value obtained, the ATP concentrations in the reaction system were set as 100 µM for TRKA, 10 µM for TRKB, 50 µM for TRKC, 7 µM for TRKA(G595R), 1 µM for TRKA(G667C) and 100 µM for TRKC(G623R). The reaction was carried out in a 384-well microplate. Firstly, the compound and a certain amount of corresponding NTRK protein were added to the wells and incubated for 5 minutes to 10 minutes at room temperature. Then, the ATP solution and the biotinylated polypeptide substrate solution were added to the reaction solution and incubated with shaking at room temperature for 60 minutes. Then, an anti-phosphorylated tyrosine antibody coupled with a europium compound and streptavidin coupled with modified allophycocyanin XL665 were added to the reaction, and continuously incubated with shaking at room temperature for 1 hour. After incubation, fluorescence intensity values of each well at an excitation wavelength of 304 nm, and emission wavelengths of 620 nm and 665 nM were determined in a TF-FRET mode on a microplate reader. Compared with the fluorescence intensity ratio of a control group (0.1% DMSO), the percentage inhibition rates of the compound at each concentration were calculated, and the IC50 value of the compound was obtained by performing nonlinear regression analysis for logarithmic value of the compound concentration - inhibition rate by GraphPad Prism 5 software, which can be seen in Table 1. Table 1 IC50 data of the compounds of the present invention on TRK enzyme activity inhibition

The target in the next experiment is T3, TRKB (Homo sapiens, UniProt Q16620).
T3 construct: purchased Carna bioscience 08-187
Briefly: HTRF KinEASE-TK kinase activity inhibition assay, TRKB. The format is biochemical. The conditions noted are these: ATP 10 µM.
From the text: as §1, §2
(Time-resolved FRET reads energy transfer from a long-lived donor to a nearby acceptor.)

For a further experiment, the target named is T4, TRKA (Homo sapiens, UniProt P04629).
T4 construct: purchased Carna bioscience 08-186
Briefly: HTRF KinEASE-TK kinase activity inhibition assay, TRKA. The conditions noted are these: ATP 100 µM. The experiment is classed as biochemical.
From the text: as §1, §2

The next experiment deals with T5, ALK (Homo sapiens, UniProt Q9UM73).
T5 construct: purchased SignalChem A19-11G-10
Kind of experiment: HTRF KinEASE-TK kinase activity inhibition assay, ALK. The format is biochemical. Particulars: ATP 1 µM.

In the next experiment the target is T6, TRKA(G667C) (Homo sapiens, UniProt P04629, G667C).
T6 construct: purchased SignalChem N16-12CG-10
Kind of experiment: HTRF KinEASE-TK kinase activity inhibition assay, TRKA(G667C). The experiment is classed as biochemical. Particulars: ATP 1 µM.
From the text: as §1, §2

T2 sequence (P04629 33-796 G595R): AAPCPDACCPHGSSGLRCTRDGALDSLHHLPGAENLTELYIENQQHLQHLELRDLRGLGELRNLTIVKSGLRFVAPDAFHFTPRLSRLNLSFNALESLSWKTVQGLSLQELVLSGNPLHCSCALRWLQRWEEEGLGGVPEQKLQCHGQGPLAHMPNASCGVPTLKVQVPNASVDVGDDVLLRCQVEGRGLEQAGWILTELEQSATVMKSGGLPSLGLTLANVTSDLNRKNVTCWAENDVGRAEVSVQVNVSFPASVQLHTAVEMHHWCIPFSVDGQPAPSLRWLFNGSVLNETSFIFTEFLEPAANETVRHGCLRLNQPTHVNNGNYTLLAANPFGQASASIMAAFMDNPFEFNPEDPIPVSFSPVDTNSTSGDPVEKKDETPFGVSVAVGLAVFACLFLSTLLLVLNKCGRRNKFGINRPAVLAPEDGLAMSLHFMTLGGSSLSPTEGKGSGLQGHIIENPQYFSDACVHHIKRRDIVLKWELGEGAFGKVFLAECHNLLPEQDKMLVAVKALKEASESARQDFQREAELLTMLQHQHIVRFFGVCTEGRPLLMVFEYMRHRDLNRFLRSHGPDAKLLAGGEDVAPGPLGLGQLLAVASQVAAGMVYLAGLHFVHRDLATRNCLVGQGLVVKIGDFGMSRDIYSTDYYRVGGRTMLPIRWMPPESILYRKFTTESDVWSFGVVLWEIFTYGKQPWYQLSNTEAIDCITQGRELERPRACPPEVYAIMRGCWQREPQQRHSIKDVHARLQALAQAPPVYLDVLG
T4 sequence (P04629 33-796): as the sequence (P04629 33-796 G595R) above, with R563G counted along it
T5 sequence (Q9UM73 19-1620): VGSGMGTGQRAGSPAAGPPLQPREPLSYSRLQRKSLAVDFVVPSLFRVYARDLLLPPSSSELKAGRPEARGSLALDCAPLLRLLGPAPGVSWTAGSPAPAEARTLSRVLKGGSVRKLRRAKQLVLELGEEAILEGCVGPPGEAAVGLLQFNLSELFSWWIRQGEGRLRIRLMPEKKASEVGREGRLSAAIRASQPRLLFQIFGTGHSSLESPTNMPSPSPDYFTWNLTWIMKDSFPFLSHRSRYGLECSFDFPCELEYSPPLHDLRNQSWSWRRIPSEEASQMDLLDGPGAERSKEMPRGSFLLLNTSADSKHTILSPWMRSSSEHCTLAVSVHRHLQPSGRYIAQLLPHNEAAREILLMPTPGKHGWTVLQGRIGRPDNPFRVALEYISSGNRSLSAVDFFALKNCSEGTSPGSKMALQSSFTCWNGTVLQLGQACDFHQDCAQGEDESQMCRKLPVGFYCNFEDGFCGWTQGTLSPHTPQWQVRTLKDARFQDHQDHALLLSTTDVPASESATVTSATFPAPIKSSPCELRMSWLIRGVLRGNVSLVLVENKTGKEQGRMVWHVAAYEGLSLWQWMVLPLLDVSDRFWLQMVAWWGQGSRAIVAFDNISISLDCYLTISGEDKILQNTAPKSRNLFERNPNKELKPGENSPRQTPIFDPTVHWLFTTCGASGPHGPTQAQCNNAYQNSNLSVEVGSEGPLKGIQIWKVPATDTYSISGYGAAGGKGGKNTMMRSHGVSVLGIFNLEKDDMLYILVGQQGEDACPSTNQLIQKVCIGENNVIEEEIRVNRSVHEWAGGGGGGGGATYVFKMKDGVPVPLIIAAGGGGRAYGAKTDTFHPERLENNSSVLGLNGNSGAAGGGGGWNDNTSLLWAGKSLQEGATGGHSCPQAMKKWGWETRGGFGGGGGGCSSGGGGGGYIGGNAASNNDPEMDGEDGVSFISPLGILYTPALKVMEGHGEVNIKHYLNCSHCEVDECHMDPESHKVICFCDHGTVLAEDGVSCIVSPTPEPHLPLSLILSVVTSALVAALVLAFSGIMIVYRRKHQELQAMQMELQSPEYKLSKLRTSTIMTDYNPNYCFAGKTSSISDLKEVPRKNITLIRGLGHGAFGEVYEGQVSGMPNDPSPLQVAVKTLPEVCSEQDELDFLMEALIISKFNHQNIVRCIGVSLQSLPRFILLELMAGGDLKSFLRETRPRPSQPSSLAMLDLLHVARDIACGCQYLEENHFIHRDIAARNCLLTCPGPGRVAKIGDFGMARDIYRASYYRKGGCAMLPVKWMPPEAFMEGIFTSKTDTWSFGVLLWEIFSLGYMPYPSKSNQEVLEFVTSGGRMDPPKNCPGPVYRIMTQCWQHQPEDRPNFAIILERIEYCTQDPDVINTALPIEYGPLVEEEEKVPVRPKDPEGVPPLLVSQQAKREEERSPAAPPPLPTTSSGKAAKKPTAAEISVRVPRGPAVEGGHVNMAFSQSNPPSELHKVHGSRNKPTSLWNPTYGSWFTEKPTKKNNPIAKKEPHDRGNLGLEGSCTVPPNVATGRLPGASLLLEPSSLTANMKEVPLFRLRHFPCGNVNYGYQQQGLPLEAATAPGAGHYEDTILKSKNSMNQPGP
T3 sequence (Q16620 32-822): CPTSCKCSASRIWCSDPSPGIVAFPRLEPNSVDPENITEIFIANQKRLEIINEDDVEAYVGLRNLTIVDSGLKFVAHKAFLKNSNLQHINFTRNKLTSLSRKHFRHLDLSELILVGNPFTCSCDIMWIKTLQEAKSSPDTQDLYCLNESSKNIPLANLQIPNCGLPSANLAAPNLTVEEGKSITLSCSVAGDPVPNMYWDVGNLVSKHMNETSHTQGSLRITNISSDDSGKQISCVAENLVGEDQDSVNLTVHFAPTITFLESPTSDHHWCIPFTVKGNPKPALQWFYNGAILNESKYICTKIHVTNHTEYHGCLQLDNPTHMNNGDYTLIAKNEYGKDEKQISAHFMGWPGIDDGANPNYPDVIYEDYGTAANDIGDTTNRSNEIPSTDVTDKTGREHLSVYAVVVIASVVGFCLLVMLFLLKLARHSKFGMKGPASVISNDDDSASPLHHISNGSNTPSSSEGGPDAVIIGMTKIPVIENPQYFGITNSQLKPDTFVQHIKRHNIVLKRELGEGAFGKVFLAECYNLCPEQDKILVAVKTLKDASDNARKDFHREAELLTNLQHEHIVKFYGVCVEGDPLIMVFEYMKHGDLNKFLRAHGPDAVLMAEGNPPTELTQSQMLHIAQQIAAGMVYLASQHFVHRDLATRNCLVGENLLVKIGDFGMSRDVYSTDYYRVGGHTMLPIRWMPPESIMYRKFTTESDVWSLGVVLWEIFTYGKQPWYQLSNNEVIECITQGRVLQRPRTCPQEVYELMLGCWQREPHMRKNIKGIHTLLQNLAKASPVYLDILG
T1 sequence (Q16288 32-839 G623R): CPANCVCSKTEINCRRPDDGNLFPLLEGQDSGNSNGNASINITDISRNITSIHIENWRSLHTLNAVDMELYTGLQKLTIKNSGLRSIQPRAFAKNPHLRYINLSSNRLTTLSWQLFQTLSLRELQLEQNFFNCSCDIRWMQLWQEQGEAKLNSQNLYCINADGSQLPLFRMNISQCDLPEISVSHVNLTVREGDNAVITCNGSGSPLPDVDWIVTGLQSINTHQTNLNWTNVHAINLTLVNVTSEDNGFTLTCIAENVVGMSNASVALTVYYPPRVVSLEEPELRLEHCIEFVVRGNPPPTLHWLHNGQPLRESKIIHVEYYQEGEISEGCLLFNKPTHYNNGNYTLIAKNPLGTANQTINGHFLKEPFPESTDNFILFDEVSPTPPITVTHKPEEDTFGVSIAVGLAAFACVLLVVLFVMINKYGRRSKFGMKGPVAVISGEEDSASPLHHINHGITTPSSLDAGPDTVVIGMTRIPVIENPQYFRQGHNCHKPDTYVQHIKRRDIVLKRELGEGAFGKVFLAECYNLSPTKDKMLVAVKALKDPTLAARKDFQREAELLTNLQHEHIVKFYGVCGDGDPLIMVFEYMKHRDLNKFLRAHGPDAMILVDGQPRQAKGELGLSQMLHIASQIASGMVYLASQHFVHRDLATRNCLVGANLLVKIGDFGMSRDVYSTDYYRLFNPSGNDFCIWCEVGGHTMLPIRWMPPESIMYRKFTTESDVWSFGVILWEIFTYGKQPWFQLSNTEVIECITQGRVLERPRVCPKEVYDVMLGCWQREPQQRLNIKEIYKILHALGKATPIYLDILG
T6 sequence (P04629 33-796 G667C): as the sequence (P04629 33-796 G595R) above, with R563G, G635C counted along it
From the text for ALK: The following method was used to determine the inhibition degrees of the compounds of the present invention on the activity of recombinant human ALK kinase in vitro. In this method, HTRF®KinEASE-TK tyrosine kinase kit (article No. 62TK0PEB) of Cisbio company was used, the principle of the kit was based on time-resolved fluorescence resonance energy transfer (TF-FRET), and the inhibition of the compounds on the activity of the ALK kinase was reflected by determining a phosphorylation degree of a biotinylated polypeptide substrate mediated by ALK kinase. […] The recombinant human ALK was purchased from SignalChem (article number was ALK#A19-11G-10).
The experimental flow was briefly described as follows: a test compound was first dissolved in DMSO to prepare a storage solution, and then diluted in gradient with a buffer provided in the kit. A final concentration of the test compound in the reaction system ranged from 1000 nM to 0.004 nM. An ATP Km value concentration of each ALK protein was determined by using an ATP solution diluted in gradient (Sangon Biotech (Shanghai) Co., Ltd., A600311). […] After incubation, fluorescence intensity values of each well at an excitation wavelength of 304 nm, and emission wavelengths of 620 nm and 665 nM were determined in a TF-FRET mode on a microplate reader, and the fluorescence intensity ratio 665/620 of each well was calculated. […]

Turning to `C[C@H]1Nc2ccn3ncc(c3n2)C(=O)NC[C@@]2(C)Cc3cc(F)cc1c3O2` [Example 8, (3R,11R)-6-fluoro-3,11-dimethyl-10-oxa-2,13,17,1 8,21-pentaazapentacyclo[13.5.2.1^8,11.0^4,9.0^18,22]tric osa-1(21),4,6,8,15(22),16,19-heptaen-14-one], the concentration for half-maximal inhibition (IC50) in the experiment with BAF3 LMNA-TRKA^G667C stood at 77.6 nM; on TRKC(G623R), 13.5 nM; at TRKA(G595R), 2.03 nM; on TRKB, 0.45 nM; at TRKA, 0.56 nM; against ALK it was 2.02 nM.
`C[C@H]1Nc2ccn3nc(N)c(c3n2)C(=O)NC[C@@]2(C)Cc3cc(F)cc1c3O2` [Example 25, (3R,11R)-16-amino-6-fluoro-3,11-dimethyl-10-oxa-2,13,17,18,21-pentaazapentacyclo[13.5.2.1^8,11.0^4,9. 0^18,22]tricosa-1(21),4,6,8,15(22),16,19-heptaen-14-one]: the IC50 amounted to 46.7 nM with BAF3 LMNA-TRKA^G667C; 5.4 nM at TRKA(G595R); 1.17 nM against TRKB; 0.82 nM on TRKA; 9.5 nM on TRKA(G667C); 1.93 nM at ALK.

For orientation: IC50 means the concentration that inhibits the measured activity by half. Read a low IC50 as greater potency in that assay.
